Values quoted from earlier work as cited in patent publication US7511157B2, “Hepatitis C inhibitor dipeptide analogs” (Boehringer Ingelheim International GmbH, priority 2004, dated 2009).

Test system: hepatitis C virus
Details: two day clinical trial; Gastroenterology (2004) 127(5): 1347-1355

Compound: COc1ccc2c(O[C@@H]3C[C@H]4C(=O)N[C@]5(C(=O)O)C[C@H]5/C=C\CCCCC[C@H](NC(=O)OC5CCCC5)C(=O)N4C3)cc(-c3csc(NC(C)C)n3)nc2c1 [BILN 2061]
- reduction of viral loads in patients: effective in rapidly reducing viral loads
